The results in this text go back to patent US20250154144A1 (CHILDREN'S HOSPITAL MEDICAL CENTER, priority 2021, published 2025).

Substitutions are numbered along the chain they refer to.

As a reminder, the Kd is the concentration at which binding is half-saturated. High values mean lower affinity, low ones higher affinity. A word on the IC50: it is the concentration that gives 50% inhibition. Read a high IC50 as weaker potency.

In test [1] the target is T1, FLT3 D835V (Homo sapiens, UniProt P36888, D835V).
T1 construct: purchased DiscoverX (KINOMEscan)
T1 sequence (P36888 27-993 D835V): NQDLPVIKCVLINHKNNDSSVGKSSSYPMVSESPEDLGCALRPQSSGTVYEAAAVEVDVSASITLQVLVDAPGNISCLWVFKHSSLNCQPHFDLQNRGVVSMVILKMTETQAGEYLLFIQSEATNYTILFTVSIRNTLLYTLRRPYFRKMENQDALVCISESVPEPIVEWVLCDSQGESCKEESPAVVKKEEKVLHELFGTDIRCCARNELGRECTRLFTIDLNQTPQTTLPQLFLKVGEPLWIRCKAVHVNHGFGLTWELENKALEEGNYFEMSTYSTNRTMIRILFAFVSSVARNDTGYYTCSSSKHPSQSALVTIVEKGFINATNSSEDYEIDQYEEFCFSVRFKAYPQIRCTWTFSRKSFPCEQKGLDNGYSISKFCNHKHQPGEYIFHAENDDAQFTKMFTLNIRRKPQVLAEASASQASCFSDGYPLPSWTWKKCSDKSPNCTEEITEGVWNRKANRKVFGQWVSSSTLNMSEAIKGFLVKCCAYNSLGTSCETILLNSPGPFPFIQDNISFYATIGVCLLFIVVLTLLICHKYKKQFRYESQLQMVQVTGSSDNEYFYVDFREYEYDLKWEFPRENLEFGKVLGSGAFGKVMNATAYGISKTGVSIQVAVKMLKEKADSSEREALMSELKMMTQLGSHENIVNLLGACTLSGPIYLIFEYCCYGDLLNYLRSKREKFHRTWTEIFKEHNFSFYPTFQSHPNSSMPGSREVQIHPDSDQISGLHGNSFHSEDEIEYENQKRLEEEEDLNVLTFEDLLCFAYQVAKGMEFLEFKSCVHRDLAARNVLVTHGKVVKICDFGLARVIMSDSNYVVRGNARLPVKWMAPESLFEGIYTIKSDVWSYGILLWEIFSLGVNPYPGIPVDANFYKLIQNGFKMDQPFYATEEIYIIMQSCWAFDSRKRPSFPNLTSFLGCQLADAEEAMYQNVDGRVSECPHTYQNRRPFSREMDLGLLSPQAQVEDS
Put plainly: DiscoverX KINOMEscan competition binding, FLT3 D835V.

Test [2] deals with T2, FLT3 D835Y (Homo sapiens, UniProt P36888, D835Y).
T2 construct: purchased DiscoverX (KINOMEscan)
T2 sequence (P36888 27-993 D835Y): T1 sequence (P36888 27-993 D835V) with V809Y
The test can be described thus: DiscoverX KINOMEscan competition binding, FLT3 D835Y.

Test [3] addresses T3, FLT3 R834Q (Homo sapiens, UniProt P36888, R834Q).
T3 construct: purchased DiscoverX (KINOMEscan)
T3 sequence (P36888 27-993 R834Q): T1 sequence (P36888 27-993 D835V) with R808Q, V809D
Put plainly: DiscoverX KINOMEscan competition binding, FLT3 R834Q.

Test [4] deals with IRAK1 (Homo sapiens, UniProt P51617). Put plainly: RBC HotSpot Kinase Assay, IRAK1. Particulars: IRAK1 IC50.
Sequence of IRAK1 (P51617 whole entry): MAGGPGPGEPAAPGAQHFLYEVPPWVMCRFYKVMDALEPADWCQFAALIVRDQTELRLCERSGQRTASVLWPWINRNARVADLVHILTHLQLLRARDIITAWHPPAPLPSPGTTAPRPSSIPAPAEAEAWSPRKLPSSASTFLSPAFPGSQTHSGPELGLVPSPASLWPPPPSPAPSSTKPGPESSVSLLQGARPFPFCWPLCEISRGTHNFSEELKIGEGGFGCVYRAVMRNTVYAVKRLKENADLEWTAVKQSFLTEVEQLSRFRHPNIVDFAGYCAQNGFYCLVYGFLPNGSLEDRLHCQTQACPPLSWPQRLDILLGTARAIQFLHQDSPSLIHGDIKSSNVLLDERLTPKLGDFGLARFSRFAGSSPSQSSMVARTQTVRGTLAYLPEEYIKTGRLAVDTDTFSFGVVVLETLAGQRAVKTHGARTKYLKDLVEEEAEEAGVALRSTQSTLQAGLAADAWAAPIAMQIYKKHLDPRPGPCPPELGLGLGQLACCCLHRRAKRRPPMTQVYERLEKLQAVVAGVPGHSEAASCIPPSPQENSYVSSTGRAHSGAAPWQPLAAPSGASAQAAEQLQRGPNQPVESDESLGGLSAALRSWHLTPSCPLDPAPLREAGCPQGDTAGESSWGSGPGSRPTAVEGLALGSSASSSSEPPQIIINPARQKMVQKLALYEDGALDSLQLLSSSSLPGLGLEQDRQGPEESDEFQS

As for `CC(O)(c1cn2c(-c3ccnc(N[C@H]4CNCC[C@@H]4F)n3)cnc2cn1)C(F)(F)F` (single isomer, unassigned) [Compound 72], the dissociation constant Kd is 0.47 nM in test [1], 0.69 nM in test [2] and 14 nM in test [3]. In test [4], this compound came in with a half-maximal inhibitory concentration (IC50) of 3 nM.
Taken in the same sequence, the figures for `F[C@H]1CCNC[C@@H]1Nc1cncc(-c2cnc3cc(OC4CC4)ccn23)n1` [Compound 12, 6-(7-cyclopropoxyimidazo[1,2-a]pyridin-3-yl)-N-((3S,4S)-4-fluoropiperidin-3-yl)pyrazin-2-amine] were 0.16 nM, 1.1 nM, 18 nM and 18 nM.
For the compound `COc1cc2ncc(-c3cncc(N[C@H]4CNC[C@@H]4F)n3)n2nc1C1CC1` [Compound 22, 6-(6-cyclopropyl-7-methoxyimidazo[1,2-b]pyridazin-3-yl)-N-((3S,4S)-4-fluoropyrrolidin-3-yl)pyrazin-2-amine], the Kd in test [1] came to 0.15 nM; in test [2], 0.6 nM; in test [3] it was 9.3 nM. For the same compound, the 50% inhibitory concentration (IC50) in test [4] was 61 nM.
Take `COc1cc2ncc(-c3cncc(N[C@H]4CNCC[C@@H]4F)n3)n2nc1C1CC1` [Compound 24, 6-(6-cyclopropyl-7-methoxyimidazo[1,2-b]pyridazin-3-yl)-N-((3S,4S)-4-fluoropiperidin-3-yl)pyrazin-2-amine]: the results for the Kd in test [1], in test [2] and in test [3] were 0.063 nM, 0.74 nM and 1.8 nM, respectively. In addition, in test [4], inhibition was half-maximal at 40 nM (IC50).
In the case of `COc1cc2ncc(-c3ccnc(N[C@@H]4CCCNC4)n3)n2cc1C(C)(C)O` [Compound 44, (R)-2-(7-methoxy-3-(2-(piperidin-3-ylamino)pyrimidin-4-yl)imidazo[1,2-a]pyridin-6-yl)propan-2-ol], the Kd in test [1] is 0.042 nM; in test [2] it was 0.15 nM; in test [3], 1.4 nM. Also, the IC50 in test [4] turned out to be 1 nM.
The corresponding values for `COc1cc2ncc(-c3ccnc(N[C@H]4CNC[C@@H]4F)n3)n2nc1C1CC1` [Compound 49, 4-(6-cyclopropyl-7-methoxyimidazo[1,2-b]pyridazin-3-yl)-N-((3S,4S)-4-fluoropyrrolidin-3-yl)pyrimidin-2-amine] are 0.06 nM, 0.41 nM, 1.4 nM and 11 nM.
In test [4], `COc1cc2ncc(-c3ccnc(N[C@@H]4CCCNC4)n3)n2nc1C1CC1` [Compound 50, (R)-4-(6-cyclopropyl-7-methoxyimidazo[1,2-b]pyridazin-3-yl)-N-(piperidin-3-yl)pyrimidin-2-amine] registered an IC50 of 63 nM. That is a double-digit nanomolar value.
`COc1cc2ncc(-c3ccnc(N[C@H]4CNCC[C@@H]4F)n3)n2nc1C1CC1` [Compound 51, 4-(6-cyclopropyl-7-methoxyimidazo[1,2-b]pyridazin-3-yl)-N-((3S,4S)-4-fluoropiperidin-3-yl)pyrimidin-2-amine]: the Kd in test [1] is 0.11 nM; in test [2], 0.35 nM; in test [3], 1.1 nM. This compound also returned a concentration for half-maximal inhibition (IC50) in test [4] of 11 nM.
